Laboratory results reported in US20220324835A1 (Nurix Therapeutics, Inc., priority 2018, published 2022).

What was measured:
anergic human T-cells = assay: Anergic T-cell activation assessed by IFNγ secretion (ionomycin-induced anergy); assay type: cell-based; conditions: anergic T-cells re-challenged with anti-CD3 and anti-CD28 for 24 hours, read-out: IFNγ Fold change from baseline
Description: Peripheral blood mononuclear cells (PBMC) were obtained either: 1) by using Ficoll-Paque™ (GE Healthcare) for separation of peripheral blood hematopoietic cells from buffy coats of healthy human donors; or 2) directly from LeukoPak donations. Total human primary T-cells were isolated from the PBMCs utilizing negative selection with commercial kits following the manufacturer's protocol (Miltenyi Catalog #130-096-535 (i.e., cocktail of antibodies against surface markers CD14, CD15, CD16, CD19, CD34, CD36, CD56, CD123 and CD235a were incubated with the PBMCs before passing the samples by magnetic beads for removal of cells expressing those surface markers) or StemCells Catalog #17951) to yield >95% CD3+ cells assessed by flow cytometry. The cells were activated with immobilized anti-CD3 antibody (OKT3) and soluble anti-CD28 antibody (28.2) for two days at which time they are washed and allowed to rest for three days in the absence of stimulation. They were then treated with ionomycin (Sigma) for 18-24 hours to induce anergy. Following two washes to remove the ionomycin from the samples, Cbl-b inhibitor compounds were added to the cells at the indicated concentrations (e.g. 10, 1.11 and 0.37 μM) and incubated for 1 hour. The cells were then re-challenged with anti-CD3 antibody and anti-CD28 antibody for 24 hours at which point cell free supernatants were collected and assessed for cytokines (e.g., IFNγ) by ELISA (R&D Systems or Peprotech) or Luminex multiplex kits (Procarta Life Technologies) following manufacturer's protocols.
Cbl-b inhibitors were tested to determine their ability to induce or enhance secretion of cytokines from anergic T-cells (e.g. IFNγ), which is indicative of decreased T-cell tolerance.
Readouts were reported as fold change over baseline. Baseline for this study was the measurement obtained from anergic human T-cells stimulated with immobilized anti-CD3 and soluble anti-CD28, wherein the T-cells were not incubated with a Cbl-b inhibitor (Table 7). For IFNγ changes greater than 2.5-fold over baseline were considered a positive response (Table 7). Compounds were ranked into bins according to their readout as follows for IFNγ: A indicates ≤2.50, B indicates 2.51-4.00 and C indicates >4.01.

T-cell = assay: CD25 cell surface staining on T-cells stimulated with anti-CD3 antibody alone (Biological Example 2); assay type: cell-based; conditions: primary human total T-cells, baseline = anti-CD3/anti-CD28 stimulated cells without inhibitor, read-out: CD25 staining, Anti-CD3 stimulation, fold change over baseline; for fold induction at 1 µM: 1 μM compound; for fold induction at 8 µM: 8 μM compound
T-cells = assay: In vivo activity: CD25 expression on CD4+ or CD8+ T-cells of mice stimulated with anti-CD3 antibody; conditions: 2 μg anti-CD3 antibody, 24 hours
Summary of the method: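 C57BL/6 or BALB/c mice dosed with inhibitor (IV, IP, SC or PO, e.g. BID or TID), then stimulated with 2 μg anti-CD3 antibody. Plasma IL-2, IFNγ, TNFα at 8 h and CD25 on CD4+/CD8+ T-cells by flow cytometry at 24 h; fold change over vehicle plus anti-CD3, binned A–E.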

Row | Structure (SMILES) | fold induction at 0.37 µM (anergic human T-cells) | fold induction at 1.11 µM (anergic human T-cells) | fold induction at 10 µM (anergic human T-cells) | fold induction at 1 µM (T-cell) | fold induction at 8 µM (T-cell) | CD4+ T-cell % CD25+ (T-cells; 90 mpk PO BID) | CD8+ T-cell % CD25+ (T-cells; 90 mpk PO BID) | CD4+ T-cell % CD25+ (T-cells; 135 mpk PO BID) | CD8+ T-cell % CD25+ (T-cells; 135 mpk PO BID) | CD4+ T-cell % CD25+ (T-cells; 180 mpk PO BID) | CD8+ T-cell % CD25+ (T-cells; 180 mpk PO BID)
1 | C[C@H](Cc1nncn1C)c1cccc(NC(=O)c2n[nH]c3c2CCC3)c1 [Compound 313, (R)-N-(3-(1-(4-Methyl-4H-1,2,4-triazol-3-yl)propan-2-yl)phenyl)-1,4,5,6-tetrahydrocyclopenta[c]pyrazole-3-carboxamide] | ≤ 2.5 | ≤ 2.5 | ≤ 2.5 | – | – | – | – | – | – | – | –
2 | Cc1cc(C(=O)Nc2cccc([C@@H](C)Cc3nncn3C)c2)nc(C2CC2)n1 [Compound 325, (S)-2-Cyclopropyl-6-methyl-N-(3-(1-(4-methyl-4H-1,2,4-triazol-3-yl)propan-2-yl)phenyl)pyrimidine-4-carboxamide] | ≤ 2.5 | ≤ 2.5 | ≤ 2.5 | – | – | – | – | – | – | – | –
3 | Cn1cnnc1CC1(c2cccc(NC(=O)c3nc4c(C(F)(F)F)cccc4[nH]3)c2)COC1 [Compound 335, N-(3-{3-[(4-methyl-1,2,4-triazol-3-yl)methyl]oxetan-3-yl}phenyl)-4-(trifluoromethyl)-1H-1,3-benzodiazole-2-carboxamide] | ≤ 2.5 | 2.51 to 4 | > 4.01 | – | – | – | – | – | – | – | –
4 | Cc1n[nH]c(C)c1-c1cc2c(c(C(F)(F)F)c1)CN(c1cccc(C3(Cc4nncn4C)COC3)c1)C2=O [Compound 385, 6-(3,5-dimethyl-1H-pyrazol-4-yl)-2-(3-{3-[(4-methyl-4H-1,2,4-triazol-3-yl)methyl]oxetan-3-yl}phenyl)-4-(trifluoromethyl)-2,3-dihydro-1H-isoindol-1-one] | ≤ 2.5 | ≤ 2.5 | > 4.01 | > 1 | > 1 | – | – | – | – | – | –
5 | C[C@H](Cc1nncn1C)c1cccc(N2Cc3c(cc(CN4CC(O)C4)cc3C(F)(F)F)C2=O)c1 [Compound 393, (R)-6-((3-hydroxyazetidin-1-yl)methyl)-2-(3-(1-(4-methyl-4H-1,2,4-triazol-3-yl)propan-2-yl)phenyl)-4-(trifluoromethyl)isoindolin-1-one] | ≤ 2.5 | 2.51 to 4 | > 4.01 | > 1 | > 1 | – | – | – | – | – | –
6 | C[C@H](Cc1nncn1C)c1cccc(N2Cc3c(cc(CN4CC(C)(O)C4)cc3C(F)(F)F)C2=O)c1 [Compound 397] | ≤ 2.5 | > 4.01 | > 4.01 | > 1 | > 1 | – | – | – | – | – | –
7 | C[C@H](Cc1nncn1C)c1cccc(N2Cc3c(cc(CN4CC[C@](C)(O)C4)cc3C(F)(F)F)C2=O)c1 [Compound 398, 6-(((S)-3-hydroxy-3-methylpyrrolidin-1-yl)methyl)-2-(3-((R)-1-(4-methyl-4H-1,2,4-triazol-3-yl)propan-2-yl)phenyl)-4-(trifluoromethyl)isoindolin-1-one] | ≤ 2.5 | > 4.01 | > 4.01 | > 1 | > 1 | – | – | – | – | – | –
8 | C[C@H](Cc1nncn1C)c1cccc(N2Cc3c(cc(CN4CC[C@H](F)C4)cc3C(F)(F)F)C2=O)c1 [Compound 399, 6-(((S)-3-fluoropyrrolidin-1-yl)methyl)-2-(3-((R)-1-(4-methyl-4H-1,2,4-triazol-3-yl)propan-2-yl)phenyl)-4-(trifluoromethyl)isoindolin-1-one] | > 4.01 | > 4.01 | > 4.01 | > 1 | > 1 | – | – | – | – | – | –
9 | Cn1cnnc1CC1(c2cccc(N3Cc4c(cc(CN5CC[C@H](C#N)C5)cc4C(F)(F)F)C3=O)c2)COC1 [Compound 422, (S)-1-((2-(3-(3-((4-methyl-4H-1,2,4-triazol-3-yl)methyl)oxetan-3-yl)phenyl)-3-oxo-7-(trifluoromethyl)isoindolin-5-yl)methyl)pyrrolidine-3-carbonitrile] | ≤ 2.5 | 2.51 to 4 | 2.51 to 4 | > 1 | > 1 | – | – | – | – | – | –
10 | Cn1cnnc1C(F)(F)[C@](C)(F)c1cccc(N2Cc3c(cc(C(=O)N4CC[C@H](O)C4)cc3C(F)(F)F)C2=O)c1 [Compound 438, 6-((S)-3-hydroxypyrrolidine-1-carbonyl)-2-(3-((R)-1,1,2-trifluoro-1-(4-methyl-4H-1,2,4-triazol-3-yl)propan-2-yl)phenyl)-4-(trifluoromethyl)isoindolin-1-one] | ≤ 2.5 | ≤ 2.5 | > 4.01 | 0.801 to 1 | > 1 | – | – | – | – | – | –
11 | Cn1cnnc1C(F)(F)[C@](C)(F)c1cccc(N2Cc3c(cc(CN4CCC(F)(F)C4)cc3C(F)(F)F)C2=O)c1 [Compound 448, (R)-6-((3,3-difluoropyrrolidin-1-yl)methyl)-2-(3-(1,1,2-trifluoro-1-(4-methyl-4H-1,2,4-triazol-3-yl)propan-2-yl)phenyl)-4-(trifluoromethyl)isoindolin-1-one] | – | – | – | 0.801 to 1 | > 1 | D (D indicates 1.00-1.50) | E (E indicates <1.00) | D (D indicates 1.00-1.50) | E (E indicates <1.00) | D (D indicates 1.00-1.50) | E (E indicates <1.00)
12 | Cn1cnnc1CC1(c2cccc(N3Cc4c(cc(CN5CC6(CC6)C5)cc4C(F)(F)F)C3=O)c2)COC1 [Compound 487, 6-{5-azaspiro[2.3]hexan-5-ylmethyl}-2-(3-{3-[(4-methyl-1,2,4-triazol-3-yl)methyl]oxetan-3-yl}phenyl)-4-(trifluoromethyl)-3H-isoindol-1-one] | – | – | – | > 1 | – | – | – | C (C indicates 1.51-2.00) | D (D indicates 1.00-1.50) | – | –
13 | Cn1cnnc1CC1(c2cccc(NC(=O)c3cc(CN4CC[C@H](F)C4)cc(C4CC4)n3)c2)COC1 [Compound 496, 6-cyclopropyl-4-{[(3S)-3-fluoropyrrolidin-1-yl]methyl}-N-(3-{3-[(4-methyl-1,2,4-triazol-3-yl)methyl]oxetan-3-yl}phenyl)pyridine-2-carboxamide] | – | – | – | > 1 | – | – | – | C (C indicates 1.51-2.00) | D (D indicates 1.00-1.50) | – | –
14 | C[C@@H](c1cc2c(c(C(F)(F)F)c1)CN(c1cccc(C3(Cc4nncn4C)COC3)c1)C2=O)N1C[C@H]2C[C@H]2C1 [Compound 541a, 6-((1S)-1-(3-azabicyclo[3.1.0]hexan-3-yl)ethyl)-2-(3-(3-((4-methyl-4H-1,2,4-triazol-3-yl)methyl)oxetan-3-yl)phenyl)-4-(trifluoromethyl)isoindolin-1-one] | – | – | – | > 1 | – | – | – | D (D indicates 1.00-1.50) | D (D indicates 1.00-1.50) | – | –
15 | C[C@@H](c1cc2c(c(C(F)(F)F)c1)CN(c1cccc(C3(Cc4nncn4C)COC3)c1)C2=O)N1CCC(C)(F)CC1 [Example 553a, (S)-6-(1-(4-fluoro-4-methylpiperidin-1-yl)ethyl)-2-(3-(3-((4-methyl-4H-1,2,4-triazol-3-yl)methyl)oxetan-3-yl)phenyl)-4-(trifluoromethyl)isoindolin-1-one] | – | – | – | > 1 | – | – | – | D (D indicates 1.00-1.50) | D (D indicates 1.00-1.50) | – | –
16 | C[C@H](c1cc2c(c(C(F)(F)F)c1)CN(c1cccc(C3(Cc4nncn4C)COC3)c1)C2=O)N1CCC(C)(F)CC1 [Example 553b, (R)-6-(1-(4-fluoro-4-methylpiperidin-1-yl)ethyl)-2-(3-(3-((4-methyl-4H-1,2,4-triazol-3-yl)methyl)oxetan-3-yl)phenyl)-4-(trifluoromethyl)isoindolin-1-one] | – | – | – | > 1 | – | – | – | A (A indicates >2.50) | D (D indicates 1.00-1.50) | – | –
